Assay results published in PMC8119466, “A screen of FDA-approved drugs identifies inhibitors of protein tyrosine phosphatase 4A3 (PTP4A3 or PRL-3)” (Scientific Reports, 2021).
Counter-ions that a name gives are not always drawn. Like-named read-outs stand apart in the source and are kept apart here.

What was measured:
Type in all cases: biochemical
[1] = molecular target: T1, recombinant PRL-1 (Homo sapiens, UniProt Q93096); assay: In vitro phosphatase assay (DiFMUP hydrolysis), PRL-1; further: test concentration or dose not given here
T1 construct: 6xHis (N, cleaved yes); made in house; host or cells: E. coli One Shot BL21 Star
T1 sequence (Q93096 1-173): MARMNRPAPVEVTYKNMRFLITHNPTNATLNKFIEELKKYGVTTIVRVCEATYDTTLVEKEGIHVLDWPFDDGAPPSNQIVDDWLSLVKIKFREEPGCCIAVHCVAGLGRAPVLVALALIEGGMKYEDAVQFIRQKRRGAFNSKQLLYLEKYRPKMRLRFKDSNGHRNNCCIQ

[2] = molecular target: T2, recombinant PRL-2 (Homo sapiens, UniProt Q12974); assay: In vitro phosphatase assay (DiFMUP hydrolysis), PRL-2;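 further: PRL-2 activity read as DiFMUP hydrolysis after 20 min at room temperature with drug, enzyme first pre-reduced at 4 °C for 20 min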
T2 construct: 6xHis (N, cleaved yes); made in house; host or cells: E. coli One Shot BL21 Star
T2 sequence (Q12974 1-167): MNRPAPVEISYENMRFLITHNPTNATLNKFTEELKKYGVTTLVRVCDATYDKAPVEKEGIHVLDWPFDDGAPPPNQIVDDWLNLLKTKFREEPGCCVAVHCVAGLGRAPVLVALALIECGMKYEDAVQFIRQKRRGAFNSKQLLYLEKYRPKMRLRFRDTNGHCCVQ
Method: Briefly, protein was diluted in reaction buffer and allowed to incubate at 4 °C for 20 min to allow for full reduction of the active site. DiFMUP, drug, and protein were added, and plates were incubated for 20 min at room temperature. Fluorescence intensities were measured on a Cytation 5 plate reader (Biotek) at an EX:360 nm and EM:460 nm. […] Inhibition selectivity for PRLs over a panel of other phosphatases was determined using PhosphataseProfiler (Eurofins, Cat # PP260).

[3] = molecular target: T3, recombinant PRL-3 (Homo sapiens, UniProt O75365); assay: In vitro phosphatase assay (DiFMUP hydrolysis), PRL-3; further: test concentration or dose not given here
T3 construct: 6xHis (N, cleaved yes); made in house; host or cells: E. coli One Shot BL21 Star

[4] = FDA-approved drug screen, compared to DMSO

T3 sequence (O75365 whole entry): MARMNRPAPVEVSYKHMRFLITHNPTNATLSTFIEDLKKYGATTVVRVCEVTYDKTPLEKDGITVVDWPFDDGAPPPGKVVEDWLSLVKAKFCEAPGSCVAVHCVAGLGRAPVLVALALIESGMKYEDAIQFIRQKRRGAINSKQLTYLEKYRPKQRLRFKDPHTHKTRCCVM

SMILES: CN(C)CC(c1ccc(O)cc1)C1(O)CCCCC1 (stereo not drawn) [Desvenlafaxine Succinate]
- % Phosphatase Activity (compared to DMSO) PRL-1 [1, 4]: 106%
- % Phosphatase Activity (compared to DMSO) PRL-2 [2, 4]: 103%
- % Phosphatase Activity (compared to DMSO) PRL-3 [3, 4]: 80%

SMILES: CN(C)CC(c1ccc(O)cc1)C1(O)CCCCC1 (stereo not drawn) [Desvenlafaxine]
- % Phosphatase Activity (compared to DMSO) PRL-1 [1, 4]: 95%
- % Phosphatase Activity (compared to DMSO) PRL-2 [2, 4]: 105%
- % Phosphatase Activity (compared to DMSO) PRL-3 [3, 4]: 70%

SMILES: Cc1cccc(Cc2c[nH]cn2)c1C [Detomidine HCl]
- % Phosphatase Activity (compared to DMSO) PRL-1 [1, 4]: 88%
- % Phosphatase Activity (compared to DMSO) PRL-2 [2, 4]: 107%
- % Phosphatase Activity (compared to DMSO) PRL-3 [3, 4]: 81%

SMILES: C[C@@H]1C[C@H]2[C@@H]3CCC4=CC(=O)C=C[C@]4(C)[C@@]3(F)[C@@H](O)C[C@]2(C)[C@@]1(O)C(=O)CO [Dexamethasone (DHAP)]
- % Phosphatase Activity (compared to DMSO) PRL-1 [1, 4]: 99%
- % Phosphatase Activity (compared to DMSO) PRL-2 [2, 4]: 94%
- % Phosphatase Activity (compared to DMSO) PRL-3 [3, 4]: 66%

SMILES: CC(=O)OCC(=O)[C@@]1(O)[C@H](C)C[C@H]2[C@@H]3CCC4=CC(=O)C=C[C@]4(C)[C@@]3(F)[C@@H](O)C[C@@]21C [Dexamethasone Acetate]
- % Phosphatase Activity (compared to DMSO) PRL-1 [1, 4]: 90%
- % Phosphatase Activity (compared to DMSO) PRL-2 [2, 4]: 93%
- % Phosphatase Activity (compared to DMSO) PRL-3 [3, 4]: 86%

SMILES: Cc1c(OCC(F)(F)F)ccnc1C[S@@+]([O-])c1nc2ccccc2[nH]1 [Dexlansoprazole]
- % Phosphatase Activity (compared to DMSO) PRL-1 [1, 4]: 95%
- % Phosphatase Activity (compared to DMSO) PRL-2 [2, 4]: 100%
- % Phosphatase Activity (compared to DMSO) PRL-3 [3, 4]: 93%

SMILES: Cc1cccc([C@H](C)c2c[nH]cn2)c1C.Cl [Dexmedetomidine HCl (Precedex)]
- % Phosphatase Activity (compared to DMSO) PRL-1 [1]: 111%
- % Phosphatase Activity (compared to DMSO) PRL-2 [2]: 120%
- % Phosphatase Activity (compared to DMSO) PRL-3 [3]: 90%

SMILES: Cc1cccc([C@H](C)c2cnc[nH]2)c1C [Dexmedetomidine]
- % Phosphatase Activity (compared to DMSO) PRL-1 [1]: 98%
- % Phosphatase Activity (compared to DMSO) PRL-2 [2]: 113%
- % Phosphatase Activity (compared to DMSO) PRL-3 [3]: 94%

SMILES: C[C@@H](CN1CC(=O)NC(=O)C1)N1CC(=O)NC(=O)C1.Cl [Dexrazoxane HCl (ICRF-187, ADR-529)]
- % Phosphatase Activity (compared to DMSO) PRL-1 [1, 4]: 97%
- % Phosphatase Activity (compared to DMSO) PRL-2 [2, 4]: 92%
- % Phosphatase Activity (compared to DMSO) PRL-3 [3, 4]: 79%

SMILES: Br.COc1ccc2c(c1)[C@]13CCCC[C@@H]1[C@H](C2)N(C)CC3.O [Dextromethorphan (hydrobromide hydrate)]
- % Phosphatase Activity (compared to DMSO) PRL-1 [1, 4]: 104%
- % Phosphatase Activity (compared to DMSO) PRL-2 [2, 4]: 118%
- % Phosphatase Activity (compared to DMSO) PRL-3 [3, 4]: 92%

SMILES: OC[C@H]1OC(O)[C@H](O)[C@@H](O)[C@@H]1O (stereo partly drawn) [Dextrose]
- % Phosphatase Activity (compared to DMSO) PRL-1 [1, 4]: 106%
- % Phosphatase Activity (compared to DMSO) PRL-2 [2, 4]: 113%
- % Phosphatase Activity (compared to DMSO) PRL-3 [3, 4]: 79%

SMILES: CC(=O)Oc1cccc2c1C(=O)c1c(OC(C)=O)cc(C(=O)O)cc1C2=O [Diacerein]
- % Phosphatase Activity (compared to DMSO) PRL-1 [1, 4]: 32%
- % Phosphatase Activity (compared to DMSO) PRL-2 [2, 4]: 51%
- % Phosphatase Activity (compared to DMSO) PRL-3 [3, 4]: 31%

SMILES: CC1=NS(=O)(=O)c2cc(Cl)ccc2N1 [Diazoxide]
- % Phosphatase Activity (compared to DMSO) PRL-1 [1, 4]: 99%
- % Phosphatase Activity (compared to DMSO) PRL-2 [2, 4]: 94%
- % Phosphatase Activity (compared to DMSO) PRL-3 [3, 4]: 89%

SMILES: CCCCOc1cc(C(=O)NCCN(CC)CC)c2ccccc2n1 [Dibucaine HCl]
- % Phosphatase Activity (compared to DMSO) PRL-1 [1, 4]: 110%
- % Phosphatase Activity (compared to DMSO) PRL-2 [2, 4]: 108%
- % Phosphatase Activity (compared to DMSO) PRL-3 [3, 4]: 101%

SMILES: N#CC(c1ccc(Cl)cc1)c1c(Cl)cc(-n2ncc(=O)[nH]c2=O)cc1Cl (stereo not drawn) [Diclazuril]
- % Phosphatase Activity (compared to DMSO) PRL-1 [1, 4]: 79%
- % Phosphatase Activity (compared to DMSO) PRL-2 [2, 4]: 112%
- % Phosphatase Activity (compared to DMSO) PRL-3 [3, 4]: 80%

SMILES: O=C(O)Cc1ccccc1Nc1c(Cl)cccc1Cl [Diclofenac Diethylamine]
- % Phosphatase Activity (compared to DMSO) PRL-1 [1, 4]: 119%
- % Phosphatase Activity (compared to DMSO) PRL-2 [2, 4]: 140%
- % Phosphatase Activity (compared to DMSO) PRL-3 [3, 4]: 97%

SMILES: O=C([O-])Cc1ccccc1Nc1c(Cl)cccc1Cl.[K+] [Diclofenac Potassium]
- % Phosphatase Activity (compared to DMSO) PRL-1 [1, 4]: 115%
- % Phosphatase Activity (compared to DMSO) PRL-2 [2, 4]: 132%
- % Phosphatase Activity (compared to DMSO) PRL-3 [3, 4]: 99%

SMILES: O=C(O)Cc1ccccc1Nc1c(Cl)cccc1Cl [Diclofenac Sodium]
- % Phosphatase Activity (compared to DMSO) PRL-1 [1, 4]: 100%
- % Phosphatase Activity (compared to DMSO) PRL-2 [2, 4]: 115%
- % Phosphatase Activity (compared to DMSO) PRL-3 [3, 4]: 92%
